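Growth conditions: 96-well plates. Treatment: test compound, 48 hours, 5 concentrations. Analysis: linear interpolation between bracketing concentrations; unreached endpoints set to highest concentration. Abbreviation: GI50, concentration required for 50% inhibition of growth.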 The source made the active and inactive calls. Cut-off read from the data, not from the text of the source: active = GI50 up to about 1.1 µM and inactive = higher.
Columns and labels:
Assay in all cases: NCI anticancer screen, dose series, 48 h
NCI-H460 = system: NCI-H460
OVCAR-5 = system: OVCAR-5
A498 = system: A498
MOLT-4 = system: MOLT-4
EKVX = system: EKVX
SK-MEL-28 = system: SK-MEL-28
HT-29 = system: HT-29
MDA-MB-231 = system: MDA-MB-231
BT-549 = system: BT-549
RXF 393 = system: RXF 393
IGROV-1 = system: IGROV-1
SK-MEL-2 = system: SK-MEL-2
786-0 = system: 786-0
SF-295 = system: SF-295
HCT-116 = system: HCT-116
UACC-257 = system: UACC-257
SK-MEL-5 = system: SK-MEL-5
T47D = system: T47D
HCC 2998 = system: HCC 2998

SMILES | GI50 (NCI-H460) | GI50 (OVCAR-5) | GI50 (A498) | GI50 (MOLT-4) | GI50 (EKVX) | GI50 (SK-MEL-28) | GI50 (HT-29) | GI50 (MDA-MB-231) | GI50 (BT-549) | GI50 (RXF 393) | GI50 (IGROV-1) | GI50 (SK-MEL-2) | GI50 (786-0) | GI50 (SF-295) | GI50 (HCT-116) | GI50 (UACC-257) | GI50 (SK-MEL-5) | GI50 (T47D) | GI50 (HCC 2998)
c1cc(CNCCN2CCNCC2)ccn1 | > 100 µM (inactive) | > 100 µM (inactive) | > 100 µM (inactive) | > 100 µM (inactive) | > 100 µM (inactive) | > 100 µM (inactive) | > 100 µM (inactive) | > 100 µM (inactive) | > 100 µM (inactive) | > 100 µM (inactive) | > 100 µM (inactive) | > 100 µM (inactive) | > 100 µM (inactive) | > 100 µM (inactive) | > 100 µM (inactive) | > 100 µM (inactive) | > 100 µM (inactive) | > 100 µM (inactive) | –
CO[C@@]12C[C@H](CNC(=O)c3ccc[nH]3)O[C@@H]1NC(=O)N2 | > 100 µM (inactive) | > 100 µM (inactive) | > 100 µM (inactive) | > 100 µM (inactive) | > 100 µM (inactive) | > 100 µM (inactive) | > 100 µM (inactive) | > 100 µM (inactive) | > 100 µM (inactive) | – | > 100 µM (inactive) | > 100 µM (inactive) | > 100 µM (inactive) | > 100 µM (inactive) | > 100 µM (inactive) | > 100 µM (inactive) | > 100 µM (inactive) | > 100 µM (inactive) | > 100 µM (inactive)
O=[N+]([O-])c1ccc(CN(CCCl)OCCCl)cc1 | > 100 µM (inactive) | > 100 µM (inactive) | – | 20.9 µM (inactive) | 92.7 µM (inactive) | > 100 µM (inactive) | > 100 µM (inactive) | > 100 µM (inactive) | > 100 µM (inactive) | > 100 µM (inactive) | 75.9 µM (inactive) | > 100 µM (inactive) | > 100 µM (inactive) | > 100 µM (inactive) | 80.7 µM (inactive) | 70.1 µM (inactive) | 51.3 µM (inactive) | 74.5 µM (inactive) | 84.1 µM (inactive)
CSc1ncc2c(n1)C(C#N)C1Sc3ccccc3N1C2=O (centres undefined) | > 100 µM (inactive) | > 100 µM (inactive) | > 100 µM (inactive) | > 100 µM (inactive) | > 100 µM (inactive) | > 100 µM (inactive) | > 100 µM (inactive) | > 100 µM (inactive) | > 100 µM (inactive) | 65 µM (inactive) | > 100 µM (inactive) | – | 76.9 µM (inactive) | 36 µM (inactive) | > 100 µM (inactive) | > 100 µM (inactive) | > 100 µM (inactive) | > 100 µM (inactive) | –
Clc1ccc(/N=C/C=C/Nc2ccc(Cl)cn2)nc1 | 16 µM (inactive) | 16.3 µM (inactive) | 20.1 µM (inactive) | 4.74 µM (inactive) | 0.714 µM (active) | 18.6 µM (inactive) | 7.8 µM (inactive) | 5 µM (inactive) | 17.2 µM (inactive) | 18.4 µM (inactive) | 15 µM (inactive) | 15.6 µM (inactive) | 5.65 µM (inactive) | 16.3 µM (inactive) | 12.2 µM (inactive) | 17.1 µM (inactive) | 13.7 µM (inactive) | 18.3 µM (inactive) | –
Cc1ccc(C)n2c1nc1ccc3ccccc3c12 | > 100 µM (inactive) | > 100 µM (inactive) | – | > 100 µM (inactive) | 27.9 µM (inactive) | > 100 µM (inactive) | > 100 µM (inactive) | – | > 100 µM (inactive) | > 100 µM (inactive) | > 100 µM (inactive) | – | > 100 µM (inactive) | > 100 µM (inactive) | – | > 100 µM (inactive) | 50.2 µM (inactive) | 45 µM (inactive) | > 100 µM (inactive)
Nc1c2ccccc2nc2c1ccc1ncccc12 | 5.83 µM (inactive) | 21.5 µM (inactive) | – | 5.15 µM (inactive) | 27.1 µM (inactive) | 33.7 µM (inactive) | 11.5 µM (inactive) | 20.8 µM (inactive) | 48.3 µM (inactive) | 24.8 µM (inactive) | 12.9 µM (inactive) | 18.6 µM (inactive) | 9.79 µM (inactive) | 21.8 µM (inactive) | 5.22 µM (inactive) | 28.8 µM (inactive) | 28.4 µM (inactive) | 27.5 µM (inactive) | 8.99 µM (inactive)
Cc1cc(S(=O)(=O)Nc2nc(N)nc(N3N=CCC3C)n2)c(S)cc1Cl (centres undefined) | > 10 µM (inactive) | > 10 µM (inactive) | > 10 µM (inactive) | > 10 µM (inactive) | > 10 µM (inactive) | > 10 µM (inactive) | > 10 µM (inactive) | – | > 10 µM (inactive) | > 10 µM (inactive) | > 10 µM (inactive) | > 10 µM (inactive) | > 10 µM (inactive) | > 10 µM (inactive) | > 10 µM (inactive) | > 10 µM (inactive) | > 10 µM (inactive) | > 10 µM (inactive) | > 10 µM (inactive)
CCOC(=O)c1ccc(/N=C2/C(=S)N(c3ccc(C(=O)OCC)cc3)C(=N)N2/N=C/c2ccccc2)cc1 | 15.5 µM (inactive) | 20 µM (inactive) | – | – | 27.1 µM (inactive) | > 10 µM (inactive) | 18.4 µM (inactive) | 8.05 µM (inactive) | 17.5 µM (inactive) | 5.13 µM (inactive) | 30.6 µM (inactive) | 26.1 µM (inactive) | 11.3 µM (inactive) | 26.7 µM (inactive) | 6.11 µM (inactive) | > 10 µM (inactive) | 3.37 µM (inactive) | 2.77 µM (inactive) | 21.8 µM (inactive)
CS/C(=N\Nc1cnc2ccccc2n1)NS(=O)(=O)c1cc(C)c(Cl)cc1Cl | > 100 µM (inactive) | > 100 µM (inactive) | 43.3 µM (inactive) | > 100 µM (inactive) | 29 µM (inactive) | > 100 µM (inactive) | > 100 µM (inactive) | 44.2 µM (inactive) | > 100 µM (inactive) | > 100 µM (inactive) | 21.1 µM (inactive) | – | > 100 µM (inactive) | > 100 µM (inactive) | > 100 µM (inactive) | > 100 µM (inactive) | > 100 µM (inactive) | > 100 µM (inactive) | > 100 µM (inactive)
OCC(O)COCn1nncc1Cn1ncc2c(SCc3ccccc3)ncnc21 (centres undefined) | – | > 100 µM (inactive) | > 100 µM (inactive) | – | > 100 µM (inactive) | > 100 µM (inactive) | > 100 µM (inactive) | > 100 µM (inactive) | > 100 µM (inactive) | – | > 100 µM (inactive) | > 100 µM (inactive) | > 100 µM (inactive) | > 100 µM (inactive) | > 100 µM (inactive) | > 100 µM (inactive) | > 100 µM (inactive) | > 100 µM (inactive) | > 100 µM (inactive)
COc1ccc(C(SC2C(O)C(CO)OC2n2ccc(N)nc2=O)(c2ccccc2)c2ccc(OC)cc2)cc1 (centres undefined) | 12.1 µM (inactive) | 20.1 µM (inactive) | – | 19.1 µM (inactive) | 18.1 µM (inactive) | 27.4 µM (inactive) | 16.9 µM (inactive) | 16 µM (inactive) | 18.2 µM (inactive) | 17.5 µM (inactive) | 21.9 µM (inactive) | 16.8 µM (inactive) | 16.8 µM (inactive) | 6.79 µM (inactive) | 14.9 µM (inactive) | 18.6 µM (inactive) | 12.9 µM (inactive) | 19.1 µM (inactive) | 17.1 µM (inactive)
O=[N+]([O-])c1ccc(SN=S=NSc2cccc(SN=S=NSc3ccc([N+](=O)[O-])cc3)c2)cc1 | 31 µM (inactive) | 25.4 µM (inactive) | 94.8 µM (inactive) | 10.2 µM (inactive) | 39.3 µM (inactive) | 35.7 µM (inactive) | 33.2 µM (inactive) | – | 19.3 µM (inactive) | – | 39.8 µM (inactive) | 17.1 µM (inactive) | 13.8 µM (inactive) | 44.3 µM (inactive) | 29.7 µM (inactive) | 45.3 µM (inactive) | 28.4 µM (inactive) | 11.1 µM (inactive) | > 100 µM (inactive)
CC1(C)OCC(/C=C\C(O)CC2(C)OCCO2)CO1 (centres undefined) | > 100 µM (inactive) | > 100 µM (inactive) | > 100 µM (inactive) | > 100 µM (inactive) | > 100 µM (inactive) | > 100 µM (inactive) | > 100 µM (inactive) | > 100 µM (inactive) | > 100 µM (inactive) | – | > 100 µM (inactive) | > 100 µM (inactive) | > 100 µM (inactive) | > 100 µM (inactive) | > 100 µM (inactive) | > 100 µM (inactive) | > 100 µM (inactive) | > 100 µM (inactive) | > 100 µM (inactive)
CC(C)(C)OC(=O)[C@@H]1ON2O[C@H](OC3CCCC3(c3ccccc3)c3ccccc3)C[C@H]3OC(=O)[C@@H]1[C@H]32 (some centres undefined) | 54.3 µM (inactive) | > 100 µM (inactive) | – | > 10 µM (inactive) | 73.5 µM (inactive) | 95.1 µM (inactive) | 38.8 µM (inactive) | > 100 µM (inactive) | 66.7 µM (inactive) | 25.7 µM (inactive) | 38.7 µM (inactive) | 14.8 µM (inactive) | 50.1 µM (inactive) | > 100 µM (inactive) | 32 µM (inactive) | 71.3 µM (inactive) | 41.6 µM (inactive) | 54 µM (inactive) | –
N#CC(C#N)=C(N)/C(C#N)=C/c1ccc2[nH]ccc2c1 | > 100 µM (inactive) | > 100 µM (inactive) | > 100 µM (inactive) | > 100 µM (inactive) | > 100 µM (inactive) | > 100 µM (inactive) | > 100 µM (inactive) | – | 70.6 µM (inactive) | > 91.2 µM (inactive) | > 100 µM (inactive) | > 100 µM (inactive) | > 100 µM (inactive) | > 100 µM (inactive) | > 100 µM (inactive) | > 100 µM (inactive) | > 100 µM (inactive) | > 100 µM (inactive) | > 100 µM (inactive)
